According to patent publication US10842806B2, “Methods for treating ocular inflammatory disorders” (Massachusetts Eye and Ear Infirmary, priority 2011, dated 2020):

Experiments:
Format in all cases: in vivo, Lewis rats
[1] = system: endotoxin-induced uveitis (EIU); experiment: Clinical scoring of EIU by slit lamp examination; settings: for EIU clinical inflammation score: 24 h after LPS, scale 0-4, mean±SD, PBS-treated EIU 3.6±0.7; for EIU clinical score: no suppression vs controls
Excerpt: Endotoxin-induced uveitis (EIU) is a rodent model of human uveitis, induced by a single systemic injection of endotoxin or lipopolysaccharide (LPS) (Rosenbaum et al., (1980) NATURE 286:611-613). Injected animals develop acute bilateral anterior inflammation, characterized by a breakdown of the blood-ocular barrier and accumulation of inflammatory cells. EIU has been used to investigate the pathogenesis of uveitis and to evaluate the therapeutic effect of several drugs (Herbort et al. (1989) EXP. EYE RES. 48:693-705; Avunduk et al. (2004) EXP. EYE RES. 79:357-365; Chang et al. (2006) BR. J. OPHTHALMOL. 90:103-108; Wakefield et al. (2010) BR. J. OPHTHALMOL. 94:271-274). The effect of AICAR on ocular inflammation associated with uveitis was assessed using the EIU rat model. Male Lewis rats ranging from 6-8 weeks old (Charles River, Wilmington, Mass.) were used for these studies. To study the effects of AICAR pretreatment, AICAR and PBS (for placebo treatment) were delivered via intraperitoneal injection of AICAR (50 mg/kg or 100 mg/kg body weight; Sigma) diluted in 150 μl PBS or equal volume of PBS at 6 hours before and at the same time as LPS injection. Four experimental groups of rats were compared: (1) Normal: no treatment (2) AICAR: normal rats treated with AICAR 6 hours before examination; (3) LPS: EIU rats treated with PBS; (4) LPS+AICAR: EIU rats treated with AICAR. Two additional groups of rats were used to study the effects of AICAR (50 mg/kg) given either at the same time as LPS injection or at 6 hours after LPS injection. Clinical scoring of EIU was performed as previously described (Pouvreau et al. (1998) J. NEUROIMMUNOL. 86:171-181). Slit lamp examination was conducted 24 hours after LPS injection in a masked fashion. The severity of EIU was graded from 0 to 4 by a masked investigator, using the following scale: 0=no inflammatory reaction; 1=discrete inflammation of the iris and conjunctival vessels; 2=dilation of the iris and conjunctival vessels with moderate flare in the anterior chamber; 3=hyperemia in iris associated with Tyndall effect in the anterior chamber; and 4=same clinical signs as 3 plus the presence of fibrin or synechiae.

[2] = system: adherent leukocytes in retinal vessels; experiment: Leukocyte adhesion to retinal vessels (Concanavalin A lectin staining)
Method: Male Lewis rats ranging from 6-8 weeks old (Charles River, Wilmington, Mass.) were used for these studies. To study the effects of AICAR pretreatment, AICAR and PBS (for placebo treatment) were delivered via intraperitoneal injection of AICAR (50 mg/kg or 100 mg/kg body weight; Sigma) diluted in 150 μl PBS or equal volume of PBS at 6 hours before and at the same time as LPS injection. Four experimental groups of rats were compared: (1) Normal: no treatment (2) AICAR: normal rats treated with AICAR 6 hours before examination; (3) LPS: EIU rats treated with PBS; (4) LPS+AICAR: EIU rats treated with AICAR. Two additional groups of rats were used to study the effects of AICAR (50 mg/kg) given either at the same time as LPS injection or at 6 hours after LPS injection. Inflammation in the posterior segment of the eye is seen in EIU with the adherence of recruited leukocytes to the retinal vascular endothelium (Koizumi et al. (2003) INVEST. OPHTHALMOL. VIS. SCI. 44:2184-2191). Leukocyte adhesion to the retinal vessels was evaluated at 24 hours after EIU induction by using the Concanavalin A (Con A) lectin staining technique (Smith et al. (1994) INVEST. OPHTHALMOL. VIS. SCI. 35:101-111). […] The flatmounts were imaged using an epifluorescence microscope (DM RXA; Leica) and the total number of Con A-stained adherent leukocytes per retina was counted.

retinal vessels = experiment: Protein leakage from retinal vessels (biotinylated BSA assay); settings: AICAR-pretreated EIU rats, 24 h after LPS; n=8; EIU rats 30.5±21.2
Method: Male Lewis rats ranging from 6-8 weeks old (Charles River, Wilmington, Mass.) were used for these studies. To study the effects of AICAR pretreatment, AICAR and PBS (for placebo treatment) were delivered via intraperitoneal injection of AICAR (50 mg/kg or 100 mg/kg body weight; Sigma) diluted in 150 μl PBS or equal volume of PBS at 6 hours before and at the same time as LPS injection. Four experimental groups of rats were compared: (1) Normal: no treatment (2) AICAR: normal rats treated with AICAR 6 hours before examination; (3) LPS: EIU rats treated with PBS; (4) LPS+AICAR: EIU rats treated with AICAR. Two additional groups of rats were used to study the effects of AICAR (50 mg/kg) given either at the same time as LPS injection or at 6 hours after LPS injection. Protein leakage from retinal vessels was assessed with a biotinylated bovine serum albumin (bBSA) assay as previously described (Trichonas et al. (2010) INVEST. OPHTHALMOL. VIS. SCI. 51:1677-1682). At 23 hours after LPS injection, rats were anesthetized and 0.14 ml of 43.7 mg/ml bBSA (Santa-Cruz Biotechnology, Santa Cruz, Calif.) was injected through the femoral vein. After one hour, the chest cavities of rats were opened, and the rats were perfused with lactated Ringer's solution via the left ventricle for 6 minutes. […] Supernatant was collected, and bBSA concentration was measured by enzyme-linked immunosorbent assay (ELISA). […]

- Adherent leukocytes in AICAR-only-treated rats ([2]; normal rats, AICAR only, n=6): few adherent leukocytes
SMILES: NC(=O)c1ncn([C@@H]2O[C@H](CO)[C@@H](O)[C@H]2O)c1N [AICAR, 5-aminoimidazole-4-carboxamide-1-β-d-ribofuranoside]
- EIU clinical inflammation score ([1]; AICAR 50 mg/kg i.p. 6 h before and at same time as LPS, n=15): 2.2±0.75
- EIU clinical inflammation score ([1]; AICAR 100 mg/kg i.p. 6 h before and at same time as LPS, n=12): 2.7±1.4
- Fibrin formation and posterior synechiae ([1]; AICAR-pretreated EIU animals vs PBS-treated EIU rats): rarely seen
- Inflammation in normal rats that received AICAR alone ([1]; age-matched normal rats, no LPS, n=6): No inflammation was detected
- EIU clinical score ([1]; single dose AICAR 50 mg/kg at 6 hours after LPS injection, n=6): 3.9±0.2
- EIU clinical score ([1]; single dose AICAR 50 mg/kg at the time of LPS injection, n=6): 3.7±0.5
- Number of Con A-stained adherent leukocytes per retina ([2]; AICAR 50 mg/kg pretreatment, 24 h after LPS, n=11, EIU rats 1163±244): 576±249 cells
- Protein leakage from retinal vessels (bBSA) (retinal vessels): 11.2±7.2 ng/mg total retinal protein
